The values below come from US20260317337A1, “HETEROCYCLIC COMPOUNDS FOR IMAGING AGGREGATED ALPHA SYNUCLEIN IN THE SYNUCLEINOPATHIES” (THE TRUSTEES OF THE UNIVERSITY OF PENNSYLVANIA, priority 2023, published 2026).

For this test, the target named is α-synuclein fibrils (Homo sapiens, UniProt P37840). The test can be described thus: Competitive radioligand binding with [^3H]BF2846 on α-synuclein fibrils. The following applies: [^3H]BF2846, α-synuclein fibrils; mean + Sd, n = 3; read-out: α-syn Ki. As to the method:
Competition binding assays were performed with [^3H]BF2846 and [^3H]PIB to measure affinity to Asyn and Aβ. […]
One may read the Ki as a dissociation constant, usually derived from enzyme kinetics or from competition with a known ligand. Take `CCOC(=O)c1cnc(N2C3CCC2CN(c2ccccn2)C3)nc1N` [Compound 1, Ethyl 4-amino-2-(3-(pyridin-2-yl)-3,8-diazabicyclo[3.2.1]octan-8-yl)pyrimidine-5-carboxylate]: the inhibition constant Ki came out at 11.6 nM.
As for `CCOC(=O)c1cnc(N2C3CCC2CN(c2cc4ccccc4cn2)C3)nc1N` [Compound 2, Ethyl 4-amino-2-(3-(isoquinolin-3-yl)-3,8-diazabicyclo[3.2.1]octan-8-yl)pyrimidine-5-carboxylate], the Ki turned out to be 26.3 nM.
For `CCOC(=O)c1cnc(N2C3CCC2CN(c2cnc4ccccc4c2)C3)nc1N` [Compound 3, Ethyl 4-amino-2-(3-(quinolin-3-yl)-3,8-diazabicyclo[3.2.1]octan-8-yl)pyrimidine-5-carboxylate], the Ki turned out to be 23.3 nM.
On to `CCOC(=O)c1cnc(N2CC3CCC(C2)N3c2ccccn2)nc1N` [Compound 4, Ethyl 4-amino-2-(8-(pyridin-2-yl)-3,8-diazabicyclo[3.2.1]octan-3-yl)pyrimidine-5-carboxylate], for which the Ki worked out at 5.5 nM.
On to `CCOC(=O)c1cnc(N2CC3CCC(C2)N3c2cc3ccccc3cn2)nc1N` [Compound 5, Ethyl 4-amino-2-(8-(isoquinolin-3-yl)-3,8-diazabicyclo[3.2.1]octan-3-yl)pyrimidine-5-carboxylate], for which the Ki stood at 58.5 nM.
In the case of `CCOC(=O)c1cnc(N2CC3CCC(C2)N3c2cnc3ccccc3c2)nc1N` [Compound 6, Ethyl 4-amino-2-(8-(quinolin-3-yl)-3,8-diazabicyclo[3.2.1]octan-3-yl)pyrimidine-5-carboxylate], the Ki turned out to be 9.9 nM.
As for `CCOC(=O)c1cnc(N2CCCN(c3ccccn3)CC2)nc1N` [Compound 7, Ethyl 4-amino-2-(4-(pyridin-2-yl)-1,4-diazepan-1-yl)pyrimidine-5-carboxylate], the figure is 8.9 nM; as for `CCOC(=O)c1cnc(N2CCCN(c3cnc4ccccc4c3)CC2)nc1N` [Compound 8, Ethyl 4-amino-2-(4-(quinolin-3-yl)-1,4-diazepan-1-yl)pyrimidine-5-carboxylate], 15.2 nM.
As for `CCOC(=O)c1cnc(N2CCN(c3ccccn3)CC2)nc1N` [Compound 9, Ethyl 4-amino-2-(4-(pyridin-2-yl)piperazin-1-yl)pyrimidine-5-carboxylate], the figure is 4 nM; as for `CCOC(=O)c1cnc(N2CCN(c3nc4ccccc4o3)CC2)nc1N` [Compound 10, Ethyl 4-amino-2-(4-(benzo[d]oxazol-2-yl)piperazin-1-yl)pyrimidine-5-carboxylate], 2.5 nM.
As for `CCOC(=O)c1cnc(N2CCN(c3nc4ccccc4s3)CC2)nc1N` [Compound 11, Ethyl 4-amino-2-(4-(benzo[d]thiazol-2-yl)piperazin-1-yl)pyrimidine-5-carboxylate], the figure is 12.9 nM; as for `CCOC(=O)c1cnc(N2C3CCC2CN(c2nc4ccccc4s2)C3)nc1N` [Compound 12, Ethyl 4-amino-2-(3-(benzo[d]thiazol-2-yl)-3,8-diazabicyclo[3.2.1]octan-8-yl)pyrimidine-5-carboxylate], 23.4 nM; as for `CCOC(=O)c1cnc(N2CCN(c3cc4ccccc4cn3)CC2)nc1N` [Compound 13, Ethyl 4-amino-2-(4-(isoquinolin-3-yl)piperazin-1-yl)pyrimidine-5-carboxylate], 12.1 nM.
Take `CCOC(=O)c1cnc(N2CCN(c3cnc4ccccc4c3)CC2)nc1N` [Compound 14, Ethyl 4-amino-2-(4-(quinolin-3-yl)piperazin-1-yl)pyrimidine-5-carboxylate]: the Ki came to 3.1 nM.
Take `CCOC(=O)c1cnc(N2CCN(c3ccc4ccccc4n3)CC2)nc1N` [Compound 15, Ethyl 4-amino-2-(4-(quinolin-2-yl)piperazin-1-yl)pyrimidine-5-carboxylate]: the Ki came out at 10.8 nM.
For the compound `CCOC(=O)c1cnc(N2CCN(c3cnc4ccccc4n3)CC2)nc1N` [Compound 16, Ethyl 4-amino-2-(4-(quinoxalin-2-yl)piperazin-1-yl)pyrimidine-5-carboxylate], the Ki amounted to 2.4 nM.
As for `CCOC(=O)c1cnc(N2CCN(c3ccc(OC)cc3)CC2)nc1N` [Compound 17, Ethyl 4-amino-2-(4-(4-methoxyphenyl)piperazin-1-yl)pyrimidine-5-carboxylate], the figure is 12.8 nM; as for `COc1ccc(NC(=O)c2cnc(N3C4CCC3CN(c3cc5ccccc5cn3)C4)nc2N)cc1` [Compound 19, 4-Amino-2-(3-(isoquinolin-3-yl)-3,8-diazabicyclo[3.2.1]octan-8-yl)-N-(4-methoxyphenyl)pyrimidine-5-carboxamide], 45 nM; as for `COc1ccc(NC(=O)c2cnc(N3CC4CCC(C3)N4c3cc4ccccc4cn3)nc2N)cc1` [Compound 21, 4-Amino-2-(8-(isoquinolin-3-yl)-3,8-diazabicyclo[3.2.1]octan-3-yl)-N-(4-methoxyphenyl)pyrimidine-5-carboxamide], 255 nM.
For the compound `COc1ccc(NC(=O)c2cnc(N3CCN(c4nc5ccccc5o4)CC3)nc2N)cc1` [Compound 26, 4-Amino-2-(4-(benzo[d]oxazol-2-yl)piperazin-1-yl)-N-(4-methoxyphenyl)pyrimidine-5-carboxamide], the Ki was 6 nM.
For `COc1ccc(NC(=O)c2cnc(N3CCN(c4nc5ccccc5s4)CC3)nc2N)cc1` [Compound 27, 4-Amino-2-(4-(benzo[d]thiazol-2-yl)piperazin-1-yl)-N-(4-methoxyphenyl)pyrimidine-5-carboxamide] the value was 1.1 nM.
As for `COc1ccc(NC(=O)c2cnc(N3CCN(c4ccc(OC)cc4)CC3)nc2N)cc1` [Compound 33, 4-Amino-N-(4-methoxyphenyl)-2-(4-(4-methoxyphenyl)piperazin-1-yl)pyrimidine-5-carboxamide], the figure is 44.5 nM; as for `Nc1nc(N2CCN(c3ccccn3)CC2)ncc1C(=O)Nc1ccc(F)cc1` [Compound 34, 4-Amino-N-(4-fluorophenyl)-2-(4-(pyridin-2-yl)piperazin-1-yl)pyrimidine-5-carboxamide], 10 nM.
Regarding `Nc1nc(N2CCN(c3ccccn3)CC2)ncc1C(=O)OCCO` [Compound 37, 2-Hydroxyethyl 4-amino-2-(4-(pyridin-2-yl)piperazin-1-yl)pyrimidine-5-carboxylate], the Ki came to 41.4 nM.
As for `Cc1cnc(N2CCN(c3ccccn3)CC2)nc1N` [Compound 39, 5-Methyl-2-(4-(pyridin-2-yl)piperazin-1-yl)pyrimidin-4-amine], the figure is 84.1 nM; as for `N#Cc1cnc(N2CCN(c3ccccn3)CC2)nc1N` [Compound 41, 4-Amino-2-(4-(pyridin-2-yl)piperazin-1-yl)pyrimidine-5-carbonitrile], 7.5 nM; as for `COc1ccc(NC(=O)c2cnc(Cl)nc2)cc1` [Compound 43, 2-Chloro-N-(4-methoxyphenyl)pyrimidine-5-carboxamide], 6.5 nM.
As for `COc1ccc(C(=O)Nc2ccc(N3CCC4(CC3)CCN(c3ccccn3)C4)cc2)cc1` [Compound 101, 4-methoxy-N-(4-(2-(pyridin-2-yl)-2,8-diazaspiro[4.5]decan-8-yl)phenyl)benzamide], the figure is 21.9 ± 9.7 nM; as for `COc1ccc(C(=O)Nc2ccc(N3C4CCC3CN(c3ccccn3)C4)cc2)cc1` [Compound 103, 4-methoxy-N-(4-(3-(pyridin-2-yl)-3,8-diazabicyclo[3.2.1]octan-8-yl)phenyl)benzamide], 6.1 ± 2.1 nM; as for `COc1ccc(C(=O)Nc2ccc(N3C4CCC3CN(c3cnc5ccccc5n3)C4)cc2)cc1` [Compound 105, 4-methoxy-N-(4-(3-(quinoxalin-2-yl)-3,8-diazabicyclo[3.2.1]octan-8-yl)phenyl)benzamide], 47.6 ± 14 nM.
As for `COc1ccc(C(=O)Nc2ccc(N3CCCN(c4ccccn4)CC3)cc2)cc1` [Compound 107, 4-methoxy-N-(4-(4-(pyridin-2-yl)-1,4-diazepan-1-yl)phenyl)benzamide], the figure is 8.7 ± 0.6 nM; as for `COc1ccc(C(=O)Nc2ccc(N3CCN(c4ccccn4)CC3)cn2)cc1` [Compound 109, 4-methoxy-N-(5-(4-(pyridin-2-yl)piperazin-1-yl)pyridin-2-yl)benzamide], 5 ± 0.34 nM.
On to `COc1ccc(C(=O)Nc2ccc(N3C4CCC3CN(c3ccccn3)C4)cn2)cc1` [Compound 110, 4-methoxy-N-(5-(3-(pyridin-2-yl)-3,8-diazabicyclo[3.2.1]octan-8-yl)pyridin-2-yl)benzamide], for which the Ki is 44.1 ± 32 nM.
As for `COc1ccc(C(=O)Nc2ccc(N3CC(OC)C3)cc2)cc1` [Compound 115, 4-methoxy-N-(4-(3-methoxyazetidin-1-yl)phenyl)benzamide], the figure is 28.6 ± 33 nM; as for `O=C(Nc1ccc(N2C3CCC2CN(c2ccccn2)C3)cc1)c1ccc(OCCF)cc1` [Compound 116, 4-(2-fluoroethoxy)-N-(4-(3-(pyridin-2-yl)-3,8-diazabicyclo[3.2.1]octan-8-yl)phenyl)benzamide], 12.7 ± 2.3 nM.
For `COc1ccc(NC(=O)c2cnc(N3CCN(c4cccnc4)CC3)nc2N)cc1` [Compound 118, 4-Amino-N-(4-methoxyphenyl)-2-(4-(pyridin-3-yl)piperazin-1-yl)pyrimidine-5-carboxamide] the value was 142 nM; for `CCOC(=O)c1cnc(N2CCN(c3ncccn3)CC2)nc1N` [Compound 119, Ethyl 4-amino-2-(4-(pyrimidin-2-yl)piperazin-1-yl)pyrimidine-5-carboxylate], 19.5 nM.
As for `CCOC(=O)c1cnc(N2CCN(c3cnccn3)CC2)nc1N` [Compound 121, Ethyl 4-amino-2-(4-(pyrazin-2-yl)piperazin-1-yl)pyrimidine-5-carboxylate], the figure is 8.4 nM; as for `CCOC(=O)c1cnc(N2CCN(c3nccs3)CC2)nc1N` [Compound 123, Ethyl 4-amino-2-(4-(thiazol-2-yl)piperazin-1-yl)pyrimidine-5-carboxylate], 51.1 nM; as for `COc1ccc(NC(=O)c2cnc(N3CCN(c4nccs4)CC3)nc2N)cc1` [Compound 124, 4-Amino-N-(4-methoxyphenyl)-2-(4-(thiazol-2-yl)piperazin-1-yl)pyrimidine-5-carboxamide], 29.9 nM.
